Assay results reported in the supplement of paper PMC10307832.

What was measured:
Experiment in all cases: relative viability (nuclei count vs DMSO), 5 days (fraction); higher = more cells survive
[1] = compound: Nc1nc(Nc2ccc3c(c2)CC[C@@H](N2CCCC2)CC3)nn1-c1cc2c(nn1)-c1ccccc1CCC2 [Bemcentinib] + Cc1cc(Nc2cc(N3CCN(C)CC3)nc(Sc3ccc(NC(=O)C4CC4)cc3)n2)n[nH]1 [Tozasertib] (partner 0.1 µM)
Method in brief: (§1)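 Lung cancer cell lines, seeded in 1536-well plates, were treated the following day by pin tool with a single drug or with five library-drug doses (not always all listed) in √10 steps on top of a fixed anchor-drug dose. Cells were fixed and nuclei stained in one step after 5 days, and nuclei were counted. Relative viability is the nuclei count for treated wells divided by that for vehicle wells, reported as medians of duplicate plates.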

[2] = compound: CC1=CC=C(C=C1)C(=O)CN2C3=C(CCCC3)SC2=N [Pifithrin_alpha] + C[C@]1(O)C[C@@H](c2nc(-c3ccc4ccc(-c5ccccc5)nc4c3)c3c(N)nccn32)C1 [Linsitinib] (partner 1 µM)
Method in brief: as §1

[3] = compound: Nc1nc(Nc2ccc3c(c2)CC[C@@H](N2CCCC2)CC3)nn1-c1cc2c(nn1)-c1ccccc1CCC2 [Bemcentinib] + C[C@]1(O)C[C@@H](c2nc(-c3ccc4ccc(-c5ccccc5)nc4c3)c3c(N)nccn32)C1 [Linsitinib] (partner 1 µM)
Method in brief: as §1

[4] = compound: CC1=CC=C(C=C1)C(=O)CN2C3=C(CCCC3)SC2=N [Pifithrin_alpha] + COc1cc2c(Oc3ccc(NC(=O)C4(C(=O)Nc5ccc(F)cc5)CC4)cc3F)ccnc2cc1OCCCN1CCOCC1 [Foretinib] (partner 0.25 µM)
Method in brief: as §1

Cell Line	relative viability ([1]; first compound 0.04 µM)	relative viability ([1]; first compound 0.1265 µM)	relative viability ([1]; first compound 0.4 µM)	relative viability ([1]; first compound 1.265 µM)	relative viability ([1]; first compound 4 µM)	relative viability ([2]; first compound 1 µM)	relative viability ([2]; first compound 3.162 µM)	relative viability ([2]; first compound 10 µM)	relative viability ([2]; first compound 31.62 µM)	relative viability ([2]; first compound 100 µM)	relative viability ([3]; first compound 0.04 µM)	relative viability ([3]; first compound 0.1265 µM)	relative viability ([3]; first compound 0.4 µM)	relative viability ([3]; first compound 1.265 µM)	relative viability ([3]; first compound 4 µM)	relative viability ([4]; first compound 1 µM)	relative viability ([4]; first compound 3.162 µM)	relative viability ([4]; first compound 10 µM)	relative viability ([4]; first compound 31.62 µM)	relative viability ([4]; first compound 100 µM)
201T	0.932	1.06	0.94	0.868	0.964	0.956	0.792	0.744	0.689	0.731	1.03	1.04	1.02	1.07	1.07	0.928	0.745	0.684	0.627	0.681
A549							0.582	0.595	0.458	0.71	0.655	0.657	0.659	0.677	0.622	1.1	0.958	1.1	0.874	0.959
A-427	0.192	0.192	0.197	0.213	0.201	1.07	1.06	1.1	0.924	1.11		1.14	1.07	1.14	1.14	0.877	1.02	1.08	0.863	1.01
ABC-1	0.16	0.175	0.187	0.193	0.162	0.9	0.651	0.621	0.593	0.506	0.785	0.811	0.881	0.801	0.682	1.16	1.11	1.03	0.942	0.724
BEN	0.464	0.446	0.569	0.579	0.461	0.991	1.11	1.01	0.929	1.29	0.915	1.09	0.986	0.886	0.907	0.357	0.736	0.697	0.508	0.625
CAL-12T	0.302	0.368	0.307	0.286	0.329	0.877	0.702	0.819	0.718	0.702	0.865	0.821	0.927	0.823	0.863	0.923	1.18	1.06		0.898
Calu-6						0.932	1.05	0.997		0.848	0.946	1.05	1.04	0.983	0.944	0.952	0.883	0.76	0.636	0.706
ChaGo-K-1	0.217	0.254	0.213	0.229	0.221											0.917	0.985	0.871	0.828	0.814
EBC-1						0.912	0.878	0.861	0.561	0.576	0.926	0.928	0.907	1.19	1.18	0.0836	0.0947	0.0856	0.0979	0.0988
